We go through 30 compounds from ChEMBL document CHEMBL3286355, “New Hits as Antagonists of GPR103 Identified by HTS” (ACS Med Chem Lett, 2014).

The nature of series [1]: Distribution coefficient, log D of the compound at pH 7.4. Particulars: octanol/water.
Series [2] concerns the target T1, Pyroglutamylated RF-amide peptide receptor (Homo sapiens, UniProt Q96P65).
T1 sequence (Q96P65 whole entry): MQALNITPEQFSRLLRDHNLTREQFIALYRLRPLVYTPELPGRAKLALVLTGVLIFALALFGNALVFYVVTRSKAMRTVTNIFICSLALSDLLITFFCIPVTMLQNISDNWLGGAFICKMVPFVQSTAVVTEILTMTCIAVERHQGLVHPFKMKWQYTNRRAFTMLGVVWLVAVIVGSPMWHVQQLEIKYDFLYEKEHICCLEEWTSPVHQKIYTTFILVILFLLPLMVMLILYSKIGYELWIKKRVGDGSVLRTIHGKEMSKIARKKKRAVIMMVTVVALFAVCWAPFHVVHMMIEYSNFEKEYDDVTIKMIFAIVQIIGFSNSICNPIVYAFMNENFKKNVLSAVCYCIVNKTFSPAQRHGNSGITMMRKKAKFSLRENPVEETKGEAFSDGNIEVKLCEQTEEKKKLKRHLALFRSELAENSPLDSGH
Nature of the series: Antagonist activity at human GPR103 receptor assessed as inhibition of inositol-1-phosphate production by cell-based assay. Format: functional.

Series [3] concerns the target T1, Pyroglutamylated RF-amide peptide receptor. Nature of the series: Displacement of [125I]-QRFP43 from human GPR103 receptor overexpressed in HEK membranes after 90 mins by liquid scintillation counting. The series is classed as cell membranes.
Series [4] in a line: Dissociation constant, pKa of the compound. Format: physicochemical.

For `COc1ccc(NC(=N)c2cccs2)cc1CSC1CCCC1`, the logD – broadly, lipophilicity at a set pH, counting ionised and neutral species – in series [1] worked out at 3.3. For the same compound, the IC50 (as a rule, the concentration at which inhibition is half-maximal) in series [2] is 50.1 nM; in series [3], 158 nM. Further, the pKa (as a rule, the pH at which an ionisable group is half protonated) in series [4] is 8.1.
The corresponding values for `COc1ccc(Cl)cc1NS(=O)(=O)c1ccc(OC)c2c1CC[C@@H](N(C)C)C2` are 2.3, 79.4 nM, 79.4 nM and 10.5.
Consider `COc1ccc(NC(=N)c2ccsc2)cc1CSC1CCCC1`, for which the logD in series [1] amounted to 2.5. Further, the IC50 is 100 nM in series [2] and 126 nM in series [3].
The corresponding values for `COc1ccc(NC(=N)c2ccccc2)cc1CSC1CCCC1` are 2.5, 20 nM and 25.1 nM.
Compound `COc1ccc(NC(=N)c2cc(C)cs2)cc1CSC1CCCC1` had a logD in series [1] of 3.7. The IC50 in series [2] is 63.1 nM; in series [3], 100 nM.
`COc1ccc(NC(=N)c2cc(Br)cs2)cc1CSC1CCCC1`: the logD in series [1] turned out to be 4.7. The IC50 in series [2] was 158 nM.
In series [1], `COc1ccc(NC(=N)c2ccc(Br)s2)cc1CSC1CCCC1` registered a logD greater than 5. The IC50 in series [2] was 20 nM; in series [3] it was 126 nM.
The corresponding values for `COc1ccc(NC(=N)c2ccc(Cl)cc2)cc1CSC1CCCC1` are 3.7, 12.6 nM and 39.8 nM.
Turning to `COc1ccc(NC(=N)Cc2ccccc2)cc1CSC1CCCC1`, the logD in series [1] was 2.3. In addition, the IC50 in series [2] was 6310 nM.
The corresponding values for `CCC(=N)Nc1ccc(OC)c(CSC2CCCC2)c1` are 1.2 and greater than 39800 nM.
As for `COc1ccc(NC(=N)c2nccs2)cc1CSC1CCCC1`, in series [1], the logD came out at 4. Further, the values for the IC50 in series [2] and in series [3] were 2510 nM and 25100 nM, respectively.
For the compound `COc1ccc(NC(=N)c2ccncc2)cc1CSC1CCCC1`, the logD in series [1] was 2.9. The IC50 in series [2] was 1580 nM.
In series [1], `COc1ccc(NC(=N)c2cccnc2)cc1CSC1CCCC1` came in with a logD of 2.6. Moreover, the IC50 in series [2] is 251 nM; in series [3] it was 501 nM.
The corresponding values for `COc1ccc(NC(=O)c2cccs2)cc1CSC1CCCC1` are greater than 4.2, 7940 nM and greater than 31600 nM.
The corresponding values for `C/N=C(/Nc1ccc(OC)c(CSC2CCCC2)c1)c1cccs1` are 3.1, 251 nM and 631 nM.
`C/N=C(\c1cccs1)N(C)c1ccc(OC)c(CSC2CCCC2)c1` gave a logD in series [1] of 1.9. In addition, the IC50 in series [2] is greater than 39800 nM.
`COc1ccc(Nc2ccccn2)cc1CSC1CCCC1` showed a logD in series [1] of 4.6. For the same compound, the IC50 in series [2] was 12600 nM; in series [3], greater than 31600 nM.
The corresponding values for `COc1ccc(C(=N)Nc2ccccc2)cc1CSC1CCCC1` are 2.8, 1000 nM and 3980 nM.
`N=C(Nc1cccc(CSC2CCCC2)c1)c1cccs1` gave a logD in series [1] of 3.8. For the same compound, the IC50 was 794 nM in series [2] and 2510 nM in series [3].
The corresponding values for `Cc1ccc(NC(=N)c2cccs2)cc1CSC1CCCC1` are greater than 3.8, 1580 nM and 10000 nM.
The corresponding values for `N=C(Nc1ccc(F)c(CSC2CCCC2)c1)c1cccs1` are greater than 3.9, 501 nM and 1260 nM.
The corresponding values for `N=C(Nc1ccc(Cl)c(CSC2CCCC2)c1)c1cccs1` are 3.9, 1000 nM and 3980 nM.
As to `N=C(Nc1ccc(OC(F)(F)F)c(CSC2CCCC2)c1)c1cccs1`, in series [1], the logD is greater than 4.8. In series [2], the IC50 is 2000 nM.
For `COc1ccc(NC(=N)c2ccccc2)cc1C[S+]([O-])C1CCCC1` (centres undefined), the logD in series [1] is 0.8. The IC50 in series [2] is greater than 39800 nM.
`COc1ccc(NC(=N)c2ccccc2)cc1CS(=O)(=O)C1CCCC1`: the IC50 in series [2] was 31600 nM.
In the case of `COc1ccc(NC(=N)c2cccs2)cc1COC1CCCC1`, the logD in series [1] is 2.7. Further, the IC50 in series [2] was 2510 nM; in series [3], 10000 nM.
The corresponding values for `COc1ccc(NC(=N)c2ccccc2)cc1CCC1CCCC1` are 3.8, 316 nM and 200 nM.
The corresponding values for `COc1ccc(NC(=N)c2ccccc2)cc1CSc1ccccc1` are 2.6, 1580 nM and 7940 nM.
Regarding `COc1ccc(NC(=N)c2ccccc2)cc1CNC(=O)C1CCCC1`, the logD in series [1] is 1.1. Moreover, the results for the IC50 in series [2] and in series [3] were 2510 nM and 7940 nM, respectively.
Take `Cc1cc2nc(NC(=N)N)nc(C)c2cc1C`: the logD in series [1] was less than 0.6. Further, the IC50 in series [2] is 2510 nM; in series [3] it was 5010 nM. For the same compound, the pKa in series [4] was 9.3.
